Measured values reported in patent publication US20230374076A1, “THE PREPARATION OF CERAMIDE CONJUGATES AND DERIVATIVES OF SP[…]” (KODE BIOTECH LIMITED, priority 2017, published 2023).

Test system: red blood cells
Experiment: Incorporation of the ceramide conjugate into red blood cell membranes, fluorescence scored after labelling with Avidin Alexa Fluor 488
Assay type: cell-based
Method: A 50 μL volume of packed red blood cells was re-suspended in an equal volume of a dispersion in phosphate buffered saline (PBS) (pH 7.2) of the ceramide conjugate (X). The re-suspended cells were incubated at 37° C. for two hours and then washed once with PBS. The modified cells were diluted with PBS to provide a suspension at a concentration equivalent to 5% of the packed cell volume. A 30 μL volume of the diluted suspension was then mixed with an equal volume of a 0.1 mg/mL solution of Avidin Alexa Flour™ 488 in PBS. The mixture was incubated at room temperature for 30 minutes before washing and re-suspending the modified cells in PBS. The fluorescence of cells in a 5 μL volume was observed using a microscope (Olympus BX51) at 400 x magnification.
The modified cells prepared using dispersions of the ceramide conjugate (X) at different concentrations (0 (control), 0.5, 5 and 50 μM) were scored.

Substance: ceramide-β-Ala-CMG(2)-biot [ceramide conjugate (X)]
- Incorporation into cell membranes (fluorescent labelling of the modified cells): spontaneously incorporated into cell membranes
